Test results: patent publication US4332787A, “Assay for beta-adrenergic antagonists and antibody therefor” (The Massachusetts General Hospital, priority 1980, dated 1982)
pKd: −log10 of the molar value. Where two headings read alike, the source gives them in different places.

Key:
clinical = conditions: for half-life: human, in vivo, iv
Protocol: (§1) The assays were performed in triplicate. […] For each determination, an identical volume of preimmune serum was assayed as a control for antibody binding. […] After an incubation period of 1 hr at 25° C., 100 μl of goat-antirabbit 1 gG antiserum was added to each tube with 50 μl of normal rabbit 1 gG as a carrier for the precipitation. The tubes were again incubated at 25° C. for 30 min. The precipitates were washed twice in Tris buffer and spun in a Sorvall table-top centrifuge at 2,000 rpm×10 min. After the supernatant was decanted, the precipitates were dissolved in 1 ml of 1% sodium dodecyl sulfate. Bound radioactivity was counted in the presence of 10 ml of Aquasol-2 (New England Nuclear) in a Packard Tricarb liquid scintillation counter with a counting efficiency of 40%.
(§2) The assays to determine the competitive binding of potentially cross-reactive drugs were performed on sera obtained from patients on long-term maintenance with single drugs; digoxin, imipramine and alphamethyldopa, respectively.
To further document the reproducibility of the assay, each serum sample from a single subject was assayed in replicate fashion at dilutions of 1:2, 1:3 and 1:4 in pooled human serum.

[1] = tested on: exercise heart rate (patients); test: Cardiovascular stress testing of patients on oral propranolol, serum propranolol concentration vs. heart rate and blood pressure; type: in vivo, human
Protocol: The assays were performed in triplicate. […] The ^3 H-(-)-propranolol was obtained from New England Nuclear Corporation. […] The standard curve for the radioimmunoassay was derived from triplicate assay of pooled human serum containing varying amounts of added (±) propranolol HCl. For each determination, an identical volume of preimmune serum was assayed as a control for antibody binding. […] After an incubation period of 1 hr at 25° C., 100 μl of goat-antirabbit 1 gG antiserum was added to each tube with 50 μl of normal rabbit 1 gG as a carrier for the precipitation. The tubes were again incubated at 25° C. for 30 min. The precipitates were washed twice in Tris buffer and spun in a Sorvall table-top centrifuge at 2,000 rpm×10 min. After the supernatant was decanted, the precipitates were dissolved in 1 ml of 1% sodium dodecyl sulfate. Bound radioactivity was counted in the presence of 10 ml of Aquasol-2 (New England Nuclear) in a Packard Tricarb liquid scintillation counter with a counting efficiency of 40%.
All subjects were submitted to standard, graded exercise according to the Bruce protocol, and 36 of 54 patients attained at least Stage II of exertion (greater than 6 min of sustained exertion).

[2] = result in words, cited from earlier work
[3] = target: antibody (antiacebutolol amine immune serum); test: Competitive binding inhibition of 3H-(-)-propranolol to anti-acebutolol amine antibody (radioimmunoassay); set-up: species or system rabbit; conditions: for competitive inhibition of 3H-propranolol binding to the antibody: sera containing the drug
Protocol: Acebutolol amine having the formula: [drawing 3] was covalently linked to lysozyme. 150 mg of acebutolol amine was dissolved in 1.0 N HCl and was cooled to 0° C. in a salt ice bath. To this solution was added 1 cc of 0.5 M NaNO2 also at 0° C. and the resultant mixture was allowed to stand at 0° C. for 10 min. A mixture of 200 mg crystalline lysozyme in 15% aqueous sodium carbonate at 0° C. was added to 2.0 cc of the above mixture. […] The resultant product was dialyzed against phosphate buffered saline and the purified conjugate was frozen in dry ice-acetone and stored at -20° C. The product then was thawed and centrifuged for 10 min at 3000 rpm. The supernatant was recovered and mixed with Tris buffer, pH 7 at a concentration of 30 mg/ml.
Albino rabbits were immunized with this conjugate at monthly intervals for four months. Each rabbit received intracutaneous toepad injections of 0.5 mg of protein emulsified in complete Freund's adjuvant.
as §1, §2

beta-adrenergic receptor = conditions: metabolite of propranolol, result in words, cited from earlier work

With `CC(C)NCC(O)COc1cccc2ccccc12` (racemic) [propranolol] the half-life (clinical; range of serum half-life observed in subjects) was 5 to 7.5 h, the half-life (clinical; serum half-life) was ~7.5 h and the “time the drug remains detectable in serum” value (clinical; single intravenous administration) was “six to twelve”. For the same molecule, the “correlation between increases in blood pressure or heart rate and serum concentration” value ([1]; 54 patients, exercise, result in words) was “lack of correlation”, the “relationship of basal heart rate to plasma concentration, response to exercise, or administered dose” value ([1]; 54 patients, long-term oral propranolol, result in words) was “failed to show any significant relationship” and the “p of linear relationship between exercise response (percent of maximal predicted heart rate for age) and serum propranolol concentration” value ([1]; FIG. 3, linear regression analysis) was < 0.0005. For the same molecule, the “average daily dose in adequately blocked patients” value ([1]; adequately blocked patients, oral) was 2.45 ± 2.89 mg/kg/day, the “p of difference in average daily dose, adequately vs. inadequately blocked patients” value ([1]; human, in vivo) was < 0.001 and the “average daily dose in inadequately blocked patients” value ([1]; inadequately blocked patients, oral) was 1.14±0.62. The “patients who achieved an exercise response of <67% of predicted” value ([1]; serum level <250 ng/ml) was 3/33, the “patients with exercise response consistent with adequate beta-adrenergic blockade” value ([1]; serum level >250 ng/ml) was 10/16 and the “correlation of serum propranolol and heart rate response to maximal exercise” value ([1]; study of 56 patients, result in words) was “highly significant”. For the same molecule, the “conversion by the liver to 4 OH-propranolol” value ([2]; oral administration) was “a significant fraction of the administered dose is converted by the liver to 4 OH-propranolol” and the bio-availability [2] was “markedly variable bio-availibility”.

For `CC(C)NCC(O)COc1ccc(O)c2ccccc12` (stereo not drawn) [4-hydroxypropranolol], the pKd ([3]; 3H-(-)-propranolol displacement from antibody, read-out: apparent KD (competitive binding inhibition)) is listed as 8.00, the “biological activity at the beta-adrenergic receptor” value (beta-adrenergic receptor) is listed as “equipotent beta adrenergic receptor antagonist” and the “biological activity at the beta-adrenergic receptor” value (beta-adrenergic receptor; listed as 4 OH-propranolol) is listed as “retains full biological activity”. The “detectability of metabolite in serum” value [2] was “detectable in serum only after the oral route of drug administration”.

For `NC[C@H](O)c1ccc(O)c(O)c1` [(-)-norepinephrine], the “competitive inhibition of 3H-propranolol binding to the antibody” value (“competitive inhibition” for short) ([3]; result in words) was “failed to produce significant competitive inhibition”.

With `CC(=O)c1ccc(N)cc1OCC(O)CNC(C)C` (stereo not drawn) [acebutolol amine] the “competitive binding inhibition curve compared with propranolol” value ([3]; FIG. 1, result in words) was “yields a curve analogous to the displacement binding observed with propranolol”.

For `C[C@](N)(Cc1ccc(O)c(O)c1)C(=O)O` [alpha methyldopa], the “competitive inhibition” value ([3]; result in words) was “failed to produce significant competitive inhibition”.

For `C[C@H]1O[C@@H](O[C@H]2[C@@H](O)C[C@H](O[C@H]3[C@@H](O)C[C@H](O[C@H]4CC[C@@]5(C)[C@H](CC[C@@H]6[C@@H]5C[C@@H](O)[C@]5(C)[C@@H](C7=CC(=O)OC7)CC[C@]65O)C4)O[C@@H]3C)O[C@@H]2C)C[C@H](O)[C@@H]1O` [digoxin], the “competitive inhibition” value ([3]; result in words) was “failed to produce significant competitive inhibition”.

For `NCCc1ccc(O)c(O)c1` [dopamine], the “competitive inhibition” value ([3]; result in words) was “failed to produce significant competitive inhibition”.

With `CN(C)CCCN1c2ccccc2CCc2ccccc21` [imipramine] the “competitive inhibition” value ([3]; result in words) was “failed to produce significant competitive inhibition”.
